The assay deals with p38α kinase (Homo sapiens, UniProt Q16539). The assay is described as follows: p38α Flash Plate Assay (p38 kinase inhibition). In kind it is biochemical. Particulars: in vitro; 150 μM ATP, 0.05 mM biotinylated peptide substrate, 5 nM enzyme, 60 minute incubation at 30° Celsius; read-out: P38 α-FLASHPLATE IC50. On the procedure:
Assay for p38 Kinase Inhibition—p38α Flash Plate Assay
The compounds to be tested were solubilized in DMSO and diluted with water to the desired concentrations. The p38 kinase was diluted to 20 nM into a buffer containing 20 mM MOPS, pH 7.0, 25 mM beta-glycerol phosphate, 2 mg/ml gelatin, 0.5 mM EGTA (ethylene-bis-(oxyethylenenitrilo)-tetraacetic acid), and 4 mM dithiothreitol (DTT).
The reaction was carried out by mixing 20 μl test compound with 10 μl of a substrate cocktail containing 0.2 mM biotinylated peptide substrate and 0.6 mM ATP (+100 μCi/ml gamma-^33P-ATP) in a 5× assay buffer. The reaction was initiated by the addition of 10 μl of p38 kinase. Final assay conditions were 25 mM MOPS, pH 7.0, 26.25 mM beta-glycerol phosphate, 80 mM KCl, 22 mM MgCl2, 3 mM MgSO4, 1 mg/ml gelatin, 0.625 mM EGTA, 1 mM DTT, 0.05 mM peptide substrate, 150 μM ATP, and 5 nM enzyme. After a 60 minute incubation at 30° Celsius, the reaction was stopped by the addition of 10 μl per reaction of 0.25 M phosphoric acid.
A portion of the reaction was transferred to a streptavidin-coated Flash Plate (Perkin Elmer); the Flash Plate was incubated for 60 minutes at 30° Celsius and then washed 3× with PBS containing 0.01% Tween-20.
Counts incorporated are determined on a scintillation counter. Relative enzyme activity was calculated by subtracting background counts (counts measured in the absence of enzyme) from each result, and comparing the resulting counts to those obtained in the absence of inhibitor. IC50 values were determined with curve-fitting plots available with common software packages. The IC50 was expressed as the concentration of compound which inhibited the enzyme activity by 50%.
Chain of p38α kinase (Q16539 whole entry): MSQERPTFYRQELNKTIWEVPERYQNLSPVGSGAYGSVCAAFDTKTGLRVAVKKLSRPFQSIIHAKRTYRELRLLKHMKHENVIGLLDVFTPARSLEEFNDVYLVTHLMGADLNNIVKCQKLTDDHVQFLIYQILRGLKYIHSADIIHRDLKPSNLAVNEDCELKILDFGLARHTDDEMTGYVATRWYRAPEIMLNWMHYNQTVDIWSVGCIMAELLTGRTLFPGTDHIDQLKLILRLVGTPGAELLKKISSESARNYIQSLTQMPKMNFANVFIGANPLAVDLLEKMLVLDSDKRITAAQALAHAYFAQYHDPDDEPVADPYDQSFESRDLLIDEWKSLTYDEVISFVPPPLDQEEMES
On to `CNC(=O)C(=O)c1c[nH]c2ccc(C(=O)N3C[C@H](C)N(Cc4ccc(F)cc4)C[C@H]3C)nc12` [compound 70], for which the IC50 was found to be 600 nM.
For `COC(=O)C(=O)c1c[nH]c2cc(Cl)c(C(=O)N3C[C@H](C)N(Cc4ccc(F)cc4)C[C@H]3C)nc12` [compound 71] the value was 34 nM; for `C[C@@H]1CN(Cc2ccc(F)cc2)[C@@H](C)CN1C(=O)c1nc2c(C(=O)C(=O)O)c[nH]c2cc1Cl` [compound 72], 14 nM; for `CNC(=O)C(=O)c1c[nH]c2cc(Cl)c(C(=O)N3C[C@H](C)N(Cc4ccc(F)cc4)C[C@H]3C)nc12` [compound 73], 20 nM.
The value for `COc1cc2[nH]ccc2nc1C(=O)N1C[C@H](C)N(Cc2ccc(F)cc2)C[C@H]1C` [compound 74] was 98 nM; that for `CNC(=O)C(=O)c1c[nH]c2cc(OC)c(C(=O)N3C[C@H](C)N(Cc4ccc(F)cc4)C[C@H]3C)nc12` [compound 76] was 98 nM.

These data come from US20050288299A1, “Azaindole derivatives as inhibitors of p38 kinase” (priority 2002, published 2005).
